Patent US20110065769A1, “Transdermal delivery of ionizable drugs” (priority 2009, published 2011)

Columns and labels:
[1] = Rat skin flux enhancement, side by side diffusion cell; type: in vitro ADME; details: for Skin flux enhancement by 3% PerRx (in words): 3% PerRx vs control at pH 7.4; for Skin flux, control: control formulation without PerRx; for Skin flux, control / Flux enhancement (S.F. Control + 3% PerRx)/(S.F. control) / Skin flux, control + 3% PerRx: hairless rat skin; for Skin flux, control / Skin flux, control + 3% PerRx: donor suspension pH 7.4, 37° C.; for Flux enhancement (S.F. Control + 3% PerRx)/(S.F. control): ratio of skin flux with 3% PerRx to control, pH 7.4; for Skin flux, control + 3% PerRx: with 3% PerRx enhancer
Description: […] The dorsal skin from a rat was excised and mounted on a side by side diffusion cell assembly with a contact area of 0.95 cm^2 and cell volume of 2.5 ml. The temperature of the diffusion cell was regulated at 37° C. The excised rat skin was clamped between the donor cell and the receiver with the dorsal stratum corneum facing the donor cell.
The model drug molecules were suspended in physiological phosphate buffer solution, of pH 7.4. The sampling volume of 1.0 ml was removed at the time point and the sampling volume was replaced with a fresh volume of the buffer solution. Skin flux of the drugs was measured in the absence or presence of the enhancer N,N-dimethylamino isobutyric acid propylene glycol mono laureate (also known as dodecanoic acid 2-(3-dimethylamethyl-propionyloxy)-propylester, or PerRx™).

[2] = Aqueous solubility with addition of 3% PerRx; type: physicochemical; details: 3% PerRx added to control formulation
Excerpt: So in the present work, it is believed that at pH 7.4 addition of the acetic acid functional group into polar head position will affect tremendously the physical chemical properties of molecules. […] See the results table.

| Structure (SMILES) | Skin flux enhancement by 3% PerRx (in words) [1] | Skin flux, control [1] [μg/cm^2-hr] | Flux enhancement (S.F. Control + 3% PerRx)/(S.F. control) [1] [X] | Skin flux, control + 3% PerRx [1] [μg/cm^2-hr] | Effect of addition of 3% PerRx on aqueous solubility [2] |
| --- | --- | --- | --- | --- | --- |
| COc1ccc2c(c1)c(CC(=O)O)c(C)n2C(=O)c1ccc(Cl)cc1 [INDOM, indomethacin] | enhanced most | 0.5 | 14 | 7.0 |  |
| O=[N+]([O-])O[C@H]1CO[C@H]2[C@@H]1OC[C@H]2O[N+](=O)[O-] [ISDN, Isosorbide di nitrate] |  | 20 | 2 | 40 |  |
| O=[N+]([O-])O[C@@H]1CO[C@H]2[C@@H]1OC[C@@H]2O [ISMN, Isosorbide mono nitrate] | enhanced most | 40 | 18 | 700 | does not affect the aqueous solubility |
